Experiment [1] addresses T1, human toll like receptor 7 (hTLR7) (Homo sapiens, UniProt Q9NYK1).
T1 construct: host or cells: HEK293 (HEK-Blue hTLR7)
T1 sequence (Q9NYK1 27-1049): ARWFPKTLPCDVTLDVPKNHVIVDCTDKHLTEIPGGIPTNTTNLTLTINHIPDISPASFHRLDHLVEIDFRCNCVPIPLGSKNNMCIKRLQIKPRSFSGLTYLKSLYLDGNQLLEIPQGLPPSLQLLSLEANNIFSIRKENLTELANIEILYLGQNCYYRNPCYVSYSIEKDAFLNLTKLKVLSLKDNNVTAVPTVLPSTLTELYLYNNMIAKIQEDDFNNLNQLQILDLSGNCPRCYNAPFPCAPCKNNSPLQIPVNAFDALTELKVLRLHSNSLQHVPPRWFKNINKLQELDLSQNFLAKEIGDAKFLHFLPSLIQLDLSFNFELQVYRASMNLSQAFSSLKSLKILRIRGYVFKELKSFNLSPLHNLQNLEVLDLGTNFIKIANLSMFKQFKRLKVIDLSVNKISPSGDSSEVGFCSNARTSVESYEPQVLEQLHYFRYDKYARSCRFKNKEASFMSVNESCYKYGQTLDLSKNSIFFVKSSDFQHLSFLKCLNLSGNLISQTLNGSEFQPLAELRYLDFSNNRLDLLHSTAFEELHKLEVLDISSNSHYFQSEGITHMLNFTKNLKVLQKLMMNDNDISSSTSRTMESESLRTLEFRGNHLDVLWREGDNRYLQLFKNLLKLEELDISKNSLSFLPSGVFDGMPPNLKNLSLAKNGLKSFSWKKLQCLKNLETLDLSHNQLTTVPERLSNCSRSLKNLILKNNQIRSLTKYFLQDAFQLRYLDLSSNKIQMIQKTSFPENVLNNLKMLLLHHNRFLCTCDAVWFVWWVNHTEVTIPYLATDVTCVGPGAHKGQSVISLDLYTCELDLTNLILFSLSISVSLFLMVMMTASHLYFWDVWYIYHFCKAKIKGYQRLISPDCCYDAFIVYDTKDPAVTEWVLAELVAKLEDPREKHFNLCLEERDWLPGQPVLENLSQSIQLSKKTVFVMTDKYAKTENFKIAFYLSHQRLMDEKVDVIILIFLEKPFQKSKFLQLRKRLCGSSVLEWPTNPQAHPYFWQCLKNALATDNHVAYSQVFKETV
As to the kind of experiment: hTLR7 in-vitro functional assay (HEK-Blue hTLR7 SEAP reporter). It is filed as cell-based. Particulars: HEK-Blue hTLR7 cells, overnight incubation. From the text:
(§1) To determine the ability of test compounds to activate the human toll like receptor 7 (hTLR7) or human toll like receptor 8 (hTLR8), cell-based reporter systems were utilized. HEK293 cells stably overexpressing either hTLR7 or hTLR8 along with a reporter gene containing an optimized secreted embryonic alkaline phosphatase gene (SEAP), under the control of the IFN-b minimal promoter fused to five NF-kB and AP-1-binding sites, were obtained from Invivogen (HEK-Blue™ hTLR7, cat #Hkb-htlr7; HEK-Blue™ hTLR8, cat #Hkb-htlr8). Stimulation of hTLR7 or hTLR8 in these cells activates NF-kB and AP-1 and induces the production of SEAP which can be quantified using an alkaline phosphatase detection reagent.
(§2) On day one of the assay, compounds were prepared using 11-point half-log serial dilutions from a 10 mM DMSO stock solution and 50 nL was spotted into 384-well plates (PerkinElmer, cat #6007480). Positive and negative controls were also spotted within the assay plate and were used to determine percent effect during the analysis process. After resuspension in DMEM assay media containing FBS heat inactivated (10%), Glutamax (2 mM) and Penicillin/Streptomycin, 10,000 cells/20 ul/well were added to previously prepared compound plates. Plates were incubated overnight (16-20 hrs) at 37° C. in a 5% CO2 environment. Prewetted Microclime lids (Labcyte, LLS-0310) were used to prevent evaporation. On day two of the assay, QUANTI-Blue™ detection reagent was prepared by reconstituting QUANTI-Blue™ powder (InvivoGen, Rep-qb1) with 100 ml of sterile water and allowed to equilibrate to 37° C. for 15 minutes. 20 ul of QUANTI-Blue™ detection reagent was added to each well and plates were incubated at room temperature for 180 min. At the end of the incubation, plates were read on an Envision (Perkin Elmer) plate reader capturing absorbance at 650 nm.
(§3) Using Positive (tool compound) and Negative (DMSO) controls, the percent (%) effect was calculated for each sample using the following equation: […]
(§4) The % effect at each concentration of compound was calculated utilizing the ABase software suite (IBDS) and was relative to the amount of SEAP produced in the positive and negative control wells contained within each assay plate. The concentrations and % effect values for test compounds were fit using a 4-parameter logistic model in ABase and the concentration of compound that produced 50% response (EC50) was calculated.

The target of experiment [2] is T2, human toll like receptor 8 (hTLR8) (Homo sapiens, UniProt Q9NR97).
T2 construct: host or cells: HEK293 (HEK-Blue hTLR8)
T2 sequence (Q9NR97 27-1041): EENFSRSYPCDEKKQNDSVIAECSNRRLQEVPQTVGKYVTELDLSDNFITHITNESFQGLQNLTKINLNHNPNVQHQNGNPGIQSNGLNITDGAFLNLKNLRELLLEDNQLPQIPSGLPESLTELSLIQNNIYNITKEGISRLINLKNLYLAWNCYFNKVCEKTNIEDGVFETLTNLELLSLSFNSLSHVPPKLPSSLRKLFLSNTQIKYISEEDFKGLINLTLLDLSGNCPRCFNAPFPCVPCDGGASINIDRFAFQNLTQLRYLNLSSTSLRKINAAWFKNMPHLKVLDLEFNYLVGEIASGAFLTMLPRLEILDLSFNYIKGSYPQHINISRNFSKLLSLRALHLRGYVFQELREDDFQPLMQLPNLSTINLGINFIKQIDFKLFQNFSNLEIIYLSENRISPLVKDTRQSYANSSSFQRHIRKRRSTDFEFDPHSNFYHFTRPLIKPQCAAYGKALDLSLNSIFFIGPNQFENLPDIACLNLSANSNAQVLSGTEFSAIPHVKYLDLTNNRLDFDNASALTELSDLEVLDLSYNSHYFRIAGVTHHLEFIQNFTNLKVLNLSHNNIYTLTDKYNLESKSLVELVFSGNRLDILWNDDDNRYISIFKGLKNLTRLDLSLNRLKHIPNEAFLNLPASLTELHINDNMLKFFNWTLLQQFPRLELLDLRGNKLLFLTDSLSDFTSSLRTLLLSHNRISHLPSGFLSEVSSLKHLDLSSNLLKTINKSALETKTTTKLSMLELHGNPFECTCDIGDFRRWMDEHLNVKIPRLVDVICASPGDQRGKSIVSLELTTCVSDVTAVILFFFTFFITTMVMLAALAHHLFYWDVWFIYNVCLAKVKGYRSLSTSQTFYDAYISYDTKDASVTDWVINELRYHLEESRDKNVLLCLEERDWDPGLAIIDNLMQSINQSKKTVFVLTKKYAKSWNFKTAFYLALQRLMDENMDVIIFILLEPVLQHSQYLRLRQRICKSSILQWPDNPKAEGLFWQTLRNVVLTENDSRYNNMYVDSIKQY
As to the kind of experiment: hTLR8 in-vitro functional assay (HEK-Blue hTLR8 SEAP reporter). It is filed as cell-based. Particulars: HEK-Blue hTLR8 cells, overnight incubation.
Source text: as §1, §2, §3, §4

Broadly, the EC50 is the midpoint of the concentration-response curve. Low values mean a more potent agent, high ones a less potent agent. For `CCCCc1nc2c(N)nc3cc(CCCN4CCN(C(=O)CCOCCOCCOCCOCCOCCOCCOCCOCCOCCOCCOCCOCCOCCOCCOCCOCCOCCOCCOCCOCCOCCOCCOCCOCCNC(=O)O[C@H]5CC[C@@]6(C)C(=CC[C@H]7[C@@H]8CC[C@H]([C@H](C)CCCC(C)C)[C@@]8(C)CC[C@@H]76)C5)CC4)ccc3c2n1CC(C)(CO)CO` [Compound 9, (3beta)-cholest-5-en-3-yl {75-[4-(3-{4-amino-2-butyl-1-[3-hydroxy-2-(hydroxymethyl)-2-methylpropyl]-1H-imidazo[4,5-c]quinolin-7-yl}propyl)piperazin-1-yl]-75-oxo-3,6,9,12,15,18,21,24,27,30,33,36,39,42,45,48,51,54,57,60,63,66,69,72-tetracosaoxapentaheptacont-1-yl}carbamate], the EC50 in experiment [1] amounted to 181 nM; in experiment [2], 16000 nM.
In the same order, the values of `CCCCc1nc2c(N)nc3cc(CCCN4CCN(C(=O)OCc5ccc(NC(=O)[C@H](CCCNC(N)=O)NC(=O)[C@@H](NC(=O)COCCOCCNC(=O)O[C@H]6CC[C@@]7(C)C(=CC[C@H]8[C@@H]9CC[C@H]([C@H](C)CCCC(C)C)[C@@]9(C)CC[C@@H]87)C6)C(C)C)cc5)CC4)ccc3c2n1CC(C)(CO)CO` [Compound 28, 4-((12S,15S)-1-(((3beta)-cholest-5-en-3-yl)oxy)-12-isopropyl-1,10,13-trioxo-15-(3-ureidopropyl)-5,8-dioxa-2,11,14-triazahexadecan-16-amido)benzyl 4-(3-(4-amino-2-butyl-1-(3-hydroxy-2-(hydroxymethyl)-2-methylpropyl)-1H-imidazo[4,5-c]quinolin-7-yl)propyl)piperazine-1-carboxylate] are 1890 nM and 4480 nM.
In the case of `CCCCc1nc2c(N)nc3cc(CCCN4CCN(C(=O)CCOCCOCCOCCOCCOCCOCCOCCOCCOCCOCCOCCOCCOCCOCCOCCOCCOCCOCCOCCOCCOCCOCCOCCOCCOCCOCCOCCOCCOCCOCCOCCOCCOCCOCCOCCOCCNC(=O)CCOCCOCCOCCOCCNC(=O)CCCOc5c(C)c(C)c6c(c5C)CC[C@@](C)(CCC[C@H](C)CCC[C@H](C)CCCC(C)C)O6)CC4)ccc3c2n1CC(C)(CO)CO` [Compound 24], the EC50 was 134 nM in experiment [1] and 2380 nM in experiment [2].
The matching figures for `CCCCc1nc2c(N)nc3cc(CCCN4CCN(C(=O)CCOCCOCCOCCOCCOCCOCCOCCOCCNC(=O)O[C@H]5CC[C@@]6(C)C(=CC[C@H]7[C@@H]8CC[C@H]([C@H](C)CCCC(C)C)[C@@]8(C)CC[C@@H]76)C5)CC4)ccc3c2n1CC(C)(CO)CO` [Compound 19, (20R)-cholest-5-en-3beta-yl {27-[4-(3-{4-amino-2-butyl-1-[3-hydroxy-2-(hydroxymethyl)-2-methylpropyl]-1H-imidazo[4,5-c]quinolin-7-yl}propyl)piperazin-1-yl]-27-oxo-3,6,9,12,15,18,21,24-octaoxaheptacosan-1-yl}carbamate]: 362 nM and 20200 nM.
In the same order, the values of `CCOCc1nc2c(N)nc3cc(CCCN4CCN(C(=O)CCOCCOCCOCCOCCOCCOCCOCCOCCOCCOCCOCCOCCOCCOCCOCCOCCOCCOCCOCCOCCOCCOCCOCCOCCNC(=O)CCOCCOCCOCCOCCNC(=O)O[C@H]5CC[C@@]6(C)C(=CC[C@H]7[C@@H]8CC[C@H]([C@H](C)CCCC(C)C)[C@@]8(C)CC[C@@H]76)C5)CC4)ccc3c2n1CC(C)(CO)CO` [Compound 5, (3beta)-cholest-5-en-3-yl {91-[4-(3-{4-amino-2-(ethoxymethyl)-1-[3-hydroxy-2-(hydroxymethyl)-2-methylpropyl]-1H-imidazo[4,5-c]quinolin-7-yl}propyl)piperazin-1-yl]-15,91-dioxo-3,6,9,12,19,22,25,28,31,34,37,40,43,46,49,52,55,58,61,64,67,70,73,76,79,82,85,88-octacosaoxa-16-azahennonacont-1-yl}carbamate] are 72 nM and 2300 nM.
The matching figures for `CCCCc1nc2c(N)nc3cc(CCCN4CCN(Cc5ccc(NC(=O)[C@H](C)NC(=O)[C@@H](NC(=O)COCCOCCNC(=O)O[C@H]6CC[C@@]7(C)C(=CC[C@H]8[C@@H]9CC[C@H]([C@H](C)CCCC(C)C)[C@@]9(C)CC[C@@H]87)C6)C(C)C)cc5)CC4)ccc3c2n1CC(C)(CO)CO` [Compound 27, (3beta)-cholest-5-en-3-yl {(2S,5S)-1-((4-((4-(3-(4-amino-2-butyl-1-(3-hydroxy-2-(hydroxymethyl)-2-methylpropyl)-1H-imidazo[4,5-c]quinolin-7-yl)propyl)piperazin-1-yl)methyl)phenyl)amino)-5-isopropyl-2-methyl-1,4,7-trioxo-9,12-dioxa-3,6-diazatetradecan-14-yl}carbamate]: 3100 nM and 2970 nM.
`CCCCc1nc2c(N)nc3cc(CCCN4CCN(C(=O)CCOCCOCCOCCOCCOCCOCCOCCOCCOCCOCCOCCOCCNC(=O)CCOCCOCCOCCOCCNC(=O)O[C@H]5CC[C@@]6(C)C(=CC[C@H]7[C@@H]8CC[C@H]([C@H](C)CCCC(C)C)[C@@]8(C)CC[C@@H]76)C5)CC4)ccc3c2n1CC(C)(CO)CO` [Compound 6, (3beta,20R)-cholest-5-en-3-yl {55-[4-(3-{4-amino-2-butyl-1-[3-hydroxy-2-(hydroxymethyl)-2-methylpropyl]-1H-imidazo[4,5-c]quinolin-7-yl}propyl)piperazin-1-yl]-15,55-dioxo-3,6,9,12,19,22,25,28,31,34,37,40,43,46,49,52-hexadecaoxa-16-azapentapentacont-1-yl}carbamate]: the values for the concentration for a half-maximal effect (EC50) in experiment [1] and in experiment [2] were 78 nM and 5080 nM, respectively.

The values above are taken from US20250135006A1, “AMPHIPHILIC TLR7/8 ADJUVANTS AND USES THEREOF” (Pfizer Inc., priority 2023, published 2025).
